Reference: the NIST ThermoML archive (doi:10.1016/j.jct.2014.03.027)
Numbers after ± are expanded uncertainties.

Test: molar enthalpy of vaporization or sublimation
Conditions: 298.15 K, Static calorimetry

molar enthalpy (Liquid)	molar enthalpy (Crystal)	SMILES
15.9 ± 0.287 kcal/mol	–	COc1ccccc1C(C)=O [2'-methoxyacetophenone]
–	21 ± 0.335 kcal/mol	COc1ccc(C(C)=O)cc1 [4'-methoxyacetophenone]
16.2 ± 0.287 kcal/mol	–	COc1cccc(C(C)=O)c1 [3'-methoxyacetophenone]
